Data taken from publication PMC10997755, “Discovery of a small-molecule inhibitor that traps Polθ on DNA and synergizes with PARP inhibitors” (Nature Communications, 2024).
Where “and” joins values, the source holds several entries; their conditions need not be identical. Equal values may be shown once. Entries after “also recorded” stand apart in the source; their conditions may differ.

Columns and labels:
Polθ-pol = molecular target: T1, Polθ-pol (Homo sapiens, UniProt O75417); test: Cy5 fluorescence Polθ-pol DNA synthesis (strand displacement) IC50 assay; assay type: biochemical; conditions: Polθ-pol DNA synthesis, Cy5 fluorescence
T1 construct: purified recombinant human Polθ-pol (comprising amino acid residues 1792–2590); made in house
T1 sequence (O75417 1792-2590): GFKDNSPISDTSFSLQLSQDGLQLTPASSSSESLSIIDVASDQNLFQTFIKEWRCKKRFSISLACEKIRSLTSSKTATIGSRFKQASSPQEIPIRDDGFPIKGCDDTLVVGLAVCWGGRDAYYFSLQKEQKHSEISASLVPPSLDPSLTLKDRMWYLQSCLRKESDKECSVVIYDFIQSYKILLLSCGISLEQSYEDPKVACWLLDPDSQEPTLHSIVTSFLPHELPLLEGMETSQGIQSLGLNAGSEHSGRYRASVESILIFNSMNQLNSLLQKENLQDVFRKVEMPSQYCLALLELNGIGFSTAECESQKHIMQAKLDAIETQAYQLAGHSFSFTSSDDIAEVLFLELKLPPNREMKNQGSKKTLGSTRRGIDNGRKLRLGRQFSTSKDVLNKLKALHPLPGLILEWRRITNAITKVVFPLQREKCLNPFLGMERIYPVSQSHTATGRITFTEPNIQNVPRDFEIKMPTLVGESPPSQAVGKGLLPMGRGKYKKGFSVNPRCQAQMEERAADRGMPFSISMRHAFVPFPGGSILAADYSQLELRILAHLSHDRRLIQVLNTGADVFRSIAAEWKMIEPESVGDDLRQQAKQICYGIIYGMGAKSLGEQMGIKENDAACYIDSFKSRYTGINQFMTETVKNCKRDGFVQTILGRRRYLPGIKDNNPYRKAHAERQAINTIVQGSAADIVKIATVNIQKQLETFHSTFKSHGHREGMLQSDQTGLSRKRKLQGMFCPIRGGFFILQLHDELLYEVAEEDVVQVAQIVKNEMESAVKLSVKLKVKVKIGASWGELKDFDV
In short: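 Recombinant human Polθ-pol (aa 1792–2590, 5 nM) extends 60 nM Cy5/quencher primer-template with 50 uM dNTPs in 25 mM Tris pH 7.8, 10 mM MgCl2, 2.5% DMSO at 37 °C. After 18 min, stopped with 20 mM EDTA; Cy5 fluorescence read, 7-point series in triplicate, inhibition from the mean.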

DLD1 BRCA2 -/- cells = test: Clonogenic assay; assay type: cell-based; conditions: for Average number of colonies counted / Normalized (colonies): DLD1 BRCA2 NULL, 3 treatments were given; for average / percent suvival / replicate counts: DLD1-BRCA2 null cells
In short: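 Cells seeded at low density (300–1000 per well, by plate size and genotype), medium changed every 2 days, colonies grown 10–12 days. Fixed in water:ethanol:acetic acid, stained with 0.5% crystal violet, then counted; IC50 from ≥3 independent experiments, mean ± SEM.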

LogP = assay type: physicochemical; conditions: method not stated
DLD1 Parental cells = test: Clonogenic assay; assay type: cell-based; conditions: DLD1 PARENTAL, 3 treatments were given
In short: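 Colony formation by BRCA-deficient, PALB2-mutant and wild-type cells (300–1000 cells/well) and MEFs (300 cells/well) over 10–12 days, medium changed every 2 days. Colonies fixed, stained with 0.5% crystal violet and counted; IC50 from 3 or more independent experiments.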

[1] = RTX-152 1.25 micro M + OLA 3.125 nano M
[2] = RTX-152 1.25 micro M + OLA 6.25 nano M
[3] = RTX-152 1.25 micro M + OLA 12.50 nano M
[4] = RTX-152 1.25 micro M + OLA 25.00 nano M
[5] = RTX-152 1.25 micro M + OLA 50.00 nano M
[6] = RTX-152 1.25 micro M + OLA 100.00 nano M
[7] = RTX-152 1.25 micro M, OLA 0.00 nano M
[8] = RTX-152 2.5 micro M + OLA 3.125 nano M
[9] = RTX-152 2.5 micro M + OLA 6.25 nano M
[10] = RTX-152 2.5 micro M + OLA 12.50 nano M
[11] = RTX-152 2.5 micro M + OLA 25.00 nano M
[12] = RTX-152 2.5 micro M + OLA 50.00 nano M
[13] = RTX-152 2.5 micro M + OLA 100.00 nano M
[14] = RTX-152 2.5 micro M, OLA 0.00 nano M
[15] = RTX-152 5 micro M + OLA 3.125 nano M
[16] = RTX-152 5 micro M + OLA 6.25 nano M
[17] = RTX-152 5 micro M + OLA 12.50 nano M
[18] = RTX-152 5 micro M + OLA 25.00 nano M
[19] = RTX-152 5 micro M + OLA 50.00 nano M
[20] = RTX-152 5 micro M + OLA 100.00 nano M
[21] = RTX-152 5 micro M, OLA 0.00 nano M

## CN1CCN(c2cc(C(F)(F)F)cc(C(F)(F)F)c2OC(=O)N(C)c2ccc(F)cc2)C1=O [RTx-152]
Polθ-pol
  IC50: 6 nM and 6.2 nM and 4 to 6 nM
DLD1 BRCA2 -/- cells; 2.5 micro M
  Average number of colonies counted: 47.3333
  Normalized (colonies): 65.5172
DLD1 BRCA2 -/- cells; 5 micro M
  Average number of colonies counted: 40.3333
  Normalized (colonies): 54.4828
DLD1 BRCA2 -/- cells; 10 micro M
  Average number of colonies counted: 22.6667
  Normalized (colonies): 31.0345
DLD1 BRCA2 -/- cells; 20 micro M
  Average number of colonies counted: 15
  Normalized (colonies): 20.6897
DLD1 BRCA2 -/- cells; Homo sapiens, DLD-1, read-out: IC50 clonogenic survival
  IC50: ~6000 nM
DLD1 BRCA2 -/- cells; [1]
  average: 78.6667
  percent suvival: 75.8842%
  replicate counts: 75 and 82 and 79
DLD1 BRCA2 -/- cells; [2]
  average: 66.6667
  percent suvival: 64.3087%
  replicate counts: 67 and 70 and 63
DLD1 BRCA2 -/- cells; [3]
  average: 40
  percent suvival: 38.5852%
  replicate counts: 36 and 44 and 40
DLD1 BRCA2 -/- cells; [4]
  average: 32.6667
  percent suvival: 31.5113%
  replicate counts: 35 and 31 and 32
DLD1 BRCA2 -/- cells; [5]
  average: 20
  percent suvival: 19.2926%
  replicate counts: 22 and 20 and 18
DLD1 BRCA2 -/- cells; [6]
  average: 11
  percent suvival: 10.6109%
  replicate counts: 8 and 11 and 14
DLD1 BRCA2 -/- cells; [7]
  average: 95
  percent suvival: 91.6399%
  replicate counts: 91 and 96 and 98
DLD1 BRCA2 -/- cells; [8]
  average: 71
  percent suvival: 68.4887%
  replicate counts: 68 and 70 and 75
DLD1 BRCA2 -/- cells; [9]
  average: 51
  percent suvival: 49.1961%
  replicate counts: 54 and 47 and 52
DLD1 BRCA2 -/- cells; [10]
  average: 37.6667
  percent suvival: 36.3344%
  replicate counts: 35 and 40 and 38
DLD1 BRCA2 -/- cells; [11]
  average: 21.6667
  percent suvival: 20.9003%
  replicate counts: 26 and 20 and 19
DLD1 BRCA2 -/- cells; [12]
  average: 13
  percent suvival: 12.5402%
  replicate counts: 10 and 16 and 13
DLD1 BRCA2 -/- cells; [13]
  average: 3.667
  percent suvival: 3.537%
  replicate counts: 7 and 2 (2×)
DLD1 BRCA2 -/- cells; [14]
  average: 80
  percent suvival: 77.1704%
  replicate counts: 82 and 80 and 78
DLD1 BRCA2 -/- cells; [15]
  average: 45.3333
  percent suvival: 43.7299%
  replicate counts: 49 and 42 and 45
DLD1 BRCA2 -/- cells; [16]
  average: 38
  percent suvival: 36.6559%
  replicate counts: 38 and 32 and 44
DLD1 BRCA2 -/- cells; [17]
  average: 19.6667
  percent suvival: 18.9711%
  replicate counts: 19 and 22 and 18
DLD1 BRCA2 -/- cells; [18]
  average: 7.333
  percent suvival: 7.074%
  replicate counts: 10 and 8 and 4
DLD1 BRCA2 -/- cells; [19]
  average: 1.667
  percent suvival: 1.608%
  replicate counts: 3 and 1 (2×)
DLD1 BRCA2 -/- cells; [20]
  average: 1
  percent suvival: 0.9646%
  replicate counts: 1 and 0 and 2
DLD1 BRCA2 -/- cells; [21]
  average: 73
  percent suvival: 70.418%
  replicate counts: 70 and 78 and 71
DLD1 BRCA2 -/- cells; clonogenic survival
  potency in BRCA2-null cells compared with RTx-161: moderately higher IC50
DLD1 BRCA2 -/- cells; clonogenic survival, Combenefit synergy
  combination with Olaparib: synergistic activity
DLD1 BRCA2 -/- cells; colony survival, versus BRCA2-WT
  selective killing / synthetic lethality in BRCA2-null DLD1 cells: selective killing; also recorded: induction of synthetic lethality
LogP
  logP: 4.2
DLD1 Parental cells; 2.5 micro M
  Average number of colonies counted: 115
  Normalized (colonies): 97.4576
DLD1 Parental cells; 5 micro M
  Normalized (colonies): 97.4576
DLD1 Parental cells; 10 micro M
  Normalized (colonies): 95.7627
DLD1 Parental cells; 20 micro M
  Average number of colonies counted: 113
  Normalized (colonies): 95.7627
